Experimental data from US6455554B1, “Oxopyridinyl pharmaceutical compositions and methods for use” (Targacept, Inc., priority 1999, dated 2002).
Several values for one entry are separate records, joined by “and”; a condition that tells them apart may be missing. Equal entries are not always repeated.

Columns and labels:
[1] = test system: Rat brain synaptosomes; test: Neurotransmitter release from brain synaptosomes; type: cell-based; settings: 10 M of ligand, percentage of release with 10 M (S)-(-)-nicotine or 300 MTMA
Method: Neurotransmitter Release from Brain Synaotosomes
Neurotransmitter release was measured using techniques similar to those previously published (Bencherif M, et al.:. JPET 279: 1413-1421, 1996).
Rat brain synaptosomes were prepared as follows: Female Sprague Dawley rats (100-200 g) were killed by decapitation after anesthesia with 70% CO2. Brains are dissected, and hippocampus, striatum, and thalamus isolated, and homogenized in 0.32 M sucrose containing 5 mM HEPES pH 7.4 using a glass/glass homogenizer. The tissue was then centrifuged for 1000×g for 10 minutes and the pellet discarded. The supernatant was centrifuged at 12000×g for 20 minutes. The resultant pellet was re-suspended in perfusion buffer (128 mM NaCl, 1.2 mM KH2PO4, 2.4 mM KCl, 3.2 mM CaCl2, 1.2 mM MgSO4, 25 mM HEPES, 1 mM Ascorbic acid, 0.01 mM pargyline HCl and 10 mM glucose pH 7.4) and centrifuged for 15 minutes at 25000×g. The final pellet was resuspended in perfusion buffer and placed in a water bath (37° C.) for 10 minutes. Radiolabeled neurotransmitter is added (30 L ^3H DA, 20 L ^3H NE, 10 L ^3H glutamate) to achieve a final concentration of 100 nM, vortexed and placed in a water bath for additional 10 minutes. Tissue-loaded filters is placed onto 11-mm diameter Gelman A/E filters on an open-air support. After a 10-minute wash period, fractions are collected to establish the basal release and agonist applied in the perfusion stream. Further fractions were collected after agonist application to re-establish the baseline. The perfusate was collected directly into scintillation vials and released radioactivity was quantified using conventional liquid scintillation techniques. Release of neurotransmitter was determined in the presence of […] of various ligands and was expressed as a percentage of release obtained with a concentration of 10 M (S)-(−)-nicotine or 300 MTMA resulting in maximal effects.

[2] = target: T1, muscle-type nicotinic acetylcholine receptors (Homo sapiens, UniProt P02708+P07510+Q07001); test: Determination of interaction with muscle receptors; type: cell-based; parameters: Emax: dose or concentration left out as unconfirmed; settings: for Emax: read-out: Emax at muscle-type receptors
T1 construct: cell preparations expressing muscle-type nicotinic acetylcholine receptors; endogenous in cells
Excerpt: The compounds of the present invention, when employed in effective amounts in accordance with the method of the present invention, lack the ability to elicit activation of nicotinic receptors of human muscle to any significant degree. […] Generally, typical preferred compounds useful in carrying the present invention activate isotopic rubidium ion flux by less than 10 percent, often by less than 5 percent, of that maximally provided by S(−) nicotine.
Determination of Interaction with Muscle Receptors
(§1) The determination of the interaction of the compounds with muscle receptors was carried out in accordance with the techniques described in U.S. Pat. No. 5,597,919 to Dull et al. The maximal activation for individual compounds (Emax) was determined as a percentage of the maximal activation induced by (S)-(−)-nicotine. Reported Emax values represent the amount released relative to (S)-(−)-nicotine on a percentage basis.

[3] = test system: ganglionic-type nicotinic acetylcholine receptors; test: Determination of interaction with ganglion receptors; type: cell-based; settings: at a concentration of 100 uM; relative to (S)-(-)-nicotine
Excerpt: By this is meant that a particular dose of compound resulting in prevention and/or treatment of a CNS disorder, is essentially ineffective in eliciting activation of certain ganglionic-type nicotinic receptors. […] As such, such compounds have poor ability to cause isotopic rubidium ion flux through nicotinic receptors in cell preparations derived from the adrenal gland. Generally, typical preferred compounds useful in carrying out the present invention activate isotopic rubidium ion flux by less than 10 percent, often by less than 5 percent, of that maximally provided by S(−) nicotine.
Determination of Interaction with Ganglion Receptors
as §1, with “ganglionic” for “muscle”

[4] = test system: nicotinic receptors; test: Determination of rubidium ion release (rubidium ion flux assay); type: cell-based
Method: Determination of Rubidium Ion Release
Rubidium release was measured using the techniques described in Bencherif et al., JPET, 279: 1413-1421 (1996). Reported EC50 values are expressed in nM, and Emax values represent the amount of rubidium ion released relative to 300 uM tetramethylammonium ion, on a percentage basis.

[5] = test system: nicotinic cholinergic receptors that modulate dopamine release; test: Determination of dopamine release; type: cell-based
Method: Determination of Dopamine Release
Dopamine release was measured using the techniques described in U.S. Pat. No. 5,597,919 to Dull et al. Release is expressed as a percentage of release obtained with a concentration of (S)-(−)-nicotine resulting in maximal effects. Reported EC50 values are expressed in nM, and Emax values represent the amount released relative to (S)-(−)-nicotine on a percentage basis.

[6] = target: CNS nicotinic receptors (Rattus norvegicus, UniProt P09483+P12390); test: Determination of binding to relevant receptor sites; settings: inhibition constants calculated from IC50 values by the method of Cheng et al.
Method: Determination of Binding to Relevant Receptor Sites
Binding of the compounds to relevant receptor sites was determined in accordance with the techniques described in U.S. Pat. No. 5,597,919 to Dull et al. Inhibition constants (Ki values), reported in nM, were calculated from the IC50 values using the method of Cheng et al., Biochem, Pharmacol. 22:3099 (1973).

[7] = rubidium ion released relative to 300 uM tetramethylammonium ion
[8] = amount released relative to (S)-(-)-nicotine
[9] = at a concentration of 100 uM, relative to (S)-(-)-nicotine

T1 sequence (P02708 21-457): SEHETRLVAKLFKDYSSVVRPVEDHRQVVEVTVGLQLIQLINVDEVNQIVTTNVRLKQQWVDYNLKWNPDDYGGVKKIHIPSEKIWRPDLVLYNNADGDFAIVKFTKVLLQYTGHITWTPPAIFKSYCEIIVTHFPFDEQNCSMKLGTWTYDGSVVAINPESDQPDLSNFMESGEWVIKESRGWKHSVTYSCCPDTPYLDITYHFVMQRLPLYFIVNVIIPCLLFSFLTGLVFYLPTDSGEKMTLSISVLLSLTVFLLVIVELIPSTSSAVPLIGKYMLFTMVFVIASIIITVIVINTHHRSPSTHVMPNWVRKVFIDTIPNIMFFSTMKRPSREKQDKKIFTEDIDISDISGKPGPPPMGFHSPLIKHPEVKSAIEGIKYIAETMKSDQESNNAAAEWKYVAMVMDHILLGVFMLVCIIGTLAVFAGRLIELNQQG
T1 sequence (P11230 24-501 partner): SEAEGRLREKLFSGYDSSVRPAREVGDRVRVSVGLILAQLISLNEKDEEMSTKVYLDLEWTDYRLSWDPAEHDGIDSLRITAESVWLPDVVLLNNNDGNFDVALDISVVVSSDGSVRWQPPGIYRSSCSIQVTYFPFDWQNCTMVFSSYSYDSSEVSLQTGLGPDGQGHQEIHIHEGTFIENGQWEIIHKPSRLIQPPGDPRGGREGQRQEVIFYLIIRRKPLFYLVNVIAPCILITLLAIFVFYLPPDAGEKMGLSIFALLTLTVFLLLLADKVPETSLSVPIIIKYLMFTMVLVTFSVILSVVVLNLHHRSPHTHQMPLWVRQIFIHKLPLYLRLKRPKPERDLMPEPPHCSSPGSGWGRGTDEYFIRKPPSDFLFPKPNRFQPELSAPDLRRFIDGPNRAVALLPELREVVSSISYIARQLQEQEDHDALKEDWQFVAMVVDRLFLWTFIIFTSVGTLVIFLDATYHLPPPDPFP
T1 sequence (Q07001 22-517): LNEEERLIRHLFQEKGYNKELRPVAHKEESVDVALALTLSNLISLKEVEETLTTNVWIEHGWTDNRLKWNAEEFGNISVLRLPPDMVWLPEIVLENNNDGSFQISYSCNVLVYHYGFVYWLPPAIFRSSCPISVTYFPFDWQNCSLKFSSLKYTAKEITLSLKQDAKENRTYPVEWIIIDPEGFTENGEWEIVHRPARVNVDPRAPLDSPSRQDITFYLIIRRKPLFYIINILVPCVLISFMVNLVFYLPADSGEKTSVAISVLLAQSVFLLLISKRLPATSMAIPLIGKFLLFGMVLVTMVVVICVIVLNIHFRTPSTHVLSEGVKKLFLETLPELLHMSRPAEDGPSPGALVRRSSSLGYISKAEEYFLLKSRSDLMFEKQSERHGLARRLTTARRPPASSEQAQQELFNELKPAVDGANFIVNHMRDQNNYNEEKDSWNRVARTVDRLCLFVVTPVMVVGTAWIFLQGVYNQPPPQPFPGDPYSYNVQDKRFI
T1 sequence (P07510 23-517): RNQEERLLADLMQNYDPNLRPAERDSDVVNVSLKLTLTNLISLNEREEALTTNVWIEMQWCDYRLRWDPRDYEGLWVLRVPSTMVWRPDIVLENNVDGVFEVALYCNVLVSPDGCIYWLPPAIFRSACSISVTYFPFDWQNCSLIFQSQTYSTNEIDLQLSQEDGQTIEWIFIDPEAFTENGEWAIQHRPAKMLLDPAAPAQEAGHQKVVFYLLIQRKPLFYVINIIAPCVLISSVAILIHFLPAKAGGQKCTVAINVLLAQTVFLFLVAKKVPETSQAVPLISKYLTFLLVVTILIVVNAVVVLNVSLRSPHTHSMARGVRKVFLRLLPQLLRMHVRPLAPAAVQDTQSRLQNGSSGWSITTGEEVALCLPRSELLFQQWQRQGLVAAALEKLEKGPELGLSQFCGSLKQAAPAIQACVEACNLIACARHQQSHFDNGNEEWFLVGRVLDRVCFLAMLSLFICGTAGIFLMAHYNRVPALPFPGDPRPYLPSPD
Sequence of CNS nicotinic receptors (P09483 31-630): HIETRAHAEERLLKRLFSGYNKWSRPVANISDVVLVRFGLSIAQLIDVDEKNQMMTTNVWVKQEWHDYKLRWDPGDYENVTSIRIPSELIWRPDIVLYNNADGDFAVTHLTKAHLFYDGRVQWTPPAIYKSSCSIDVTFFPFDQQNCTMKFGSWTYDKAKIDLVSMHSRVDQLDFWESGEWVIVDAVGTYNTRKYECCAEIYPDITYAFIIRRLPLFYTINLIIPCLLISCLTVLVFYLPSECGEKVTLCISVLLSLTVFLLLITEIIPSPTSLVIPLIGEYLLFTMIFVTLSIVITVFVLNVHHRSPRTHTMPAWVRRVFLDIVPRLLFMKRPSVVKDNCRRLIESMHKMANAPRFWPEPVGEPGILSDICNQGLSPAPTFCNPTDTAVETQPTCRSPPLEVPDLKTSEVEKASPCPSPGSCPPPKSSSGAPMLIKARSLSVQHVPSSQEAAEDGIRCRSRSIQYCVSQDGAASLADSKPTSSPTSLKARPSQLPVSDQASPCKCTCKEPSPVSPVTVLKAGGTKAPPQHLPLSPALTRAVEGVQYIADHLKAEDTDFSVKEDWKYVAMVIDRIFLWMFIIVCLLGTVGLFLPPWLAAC
Sequence of CNS nicotinic receptors (P12390 25-500): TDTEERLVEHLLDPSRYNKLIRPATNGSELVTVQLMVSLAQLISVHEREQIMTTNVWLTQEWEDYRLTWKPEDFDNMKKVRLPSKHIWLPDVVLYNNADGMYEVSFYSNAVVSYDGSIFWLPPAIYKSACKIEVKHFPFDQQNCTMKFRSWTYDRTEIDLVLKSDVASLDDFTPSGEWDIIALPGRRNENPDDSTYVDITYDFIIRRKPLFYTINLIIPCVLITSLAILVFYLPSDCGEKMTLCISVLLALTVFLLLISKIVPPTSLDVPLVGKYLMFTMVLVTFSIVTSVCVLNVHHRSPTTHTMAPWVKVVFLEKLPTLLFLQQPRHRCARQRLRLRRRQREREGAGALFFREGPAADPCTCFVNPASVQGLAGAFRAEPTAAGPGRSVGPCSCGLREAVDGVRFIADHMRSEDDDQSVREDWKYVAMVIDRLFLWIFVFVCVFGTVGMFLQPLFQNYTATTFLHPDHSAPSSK

Row | SMILES | Emax [1] [%] | Emax [2] [%] | Emax at ganglionic-type receptors [3] | EC50 [4] [µM] | Emax [4, 7] [%] | EC50 [5] [µM] | Emax [5, 8] [%] | further results
1 | CNC(C)CC=Cc1cncc(O)c1 (centres unmarked) [Sample No. 13, (4E)-N-methyl-5-(3-(5-hydroxypyridin)yl)-4-penten-2-amine sesquioxalate] | 80 | 21 | 12% |  |  |  |  | 
2 | CNC(C)CC=Cc1cncc(C(F)(F)F)c1 (centres unmarked) [Sample No. 10, (4E)-N-methyl-5-(3-(5-trifluoromethylpyridin)yl)-4-penten-2-amine] | 50 | 0 | 0% | 100 | 0 |  |  | 
3 | CCSc1cncc(/C=C/CCNC)c1 [Sample No. 9, (3E)-N-methyl-4-(3-(5-ethylthiopyridin)yl)-3-buten-1-amine hemigalactarate] |  | 7 | 22% | 0.191 | 40 | 0.875 | 39 | 
4 | CNCC/C=C/c1cncc(OCC(C)C)c1 [Sample No. 6, (3E)-N-methyl-4-(3-(5-isobutoxypyridin)yl)-3-buten-1-amine hemigalactarate] |  | 6 | 13% | 1 | 15 | 15 | 25 | 
5 | CN[C@@H](C)C/C=C/c1cc(OC(C)C)c[n+]([O-])c1 [Sample No. 5] | 19 | 7 | 8% |  |  |  |  | 
6 | CC(N)CC=Cc1cncc(OC(C)C)c1 (centres unmarked) [Sample No. 12, (4E)-5-(3-(5-isopropoxypyridin)yl)-4-penten-2-amine hemigalactarate] | 32 |  | 5% |  |  |  |  | Emax at 100 µM [2, 9]: 13%
7 | CNC(C)CC=Cc1ccc[n+]([O-])c1 (centres unmarked) [Sample No. 8, (4E)-N-methyl-5-(3-(1-oxopyridin)yl)-4-penten-2-amine] | 9 | 0 | 8% |  |  |  |  | 
8 | CNCC/C=C/c1cnc(N)c([N+](=O)[O-])c1 [Sample No. 1, (3E)-N-methyl-4-[3-(5-nitro-6-aminopyridin)yl]-3-buten-1-amine] |  |  | 11% and 16% | 26 |  |  |  | neurotransmitter release Emax [1]: 33%; Emax at muscle-type receptors [2, 9]: 10% and 11%; Emax for dopamine release [5, 8]: 0%; Emax in the rubidium ion flux assay [4, 7]: 22%; Ki [6]: 0.003 µM
9 | CNCC/C=C/c1cncc(C(=O)NCc2ccccc2)c1 [Sample No. 2, (3E)-N-methyl-N-[3-(5-(N-benzylcarboxamido)pyridin)yl]-3-buten-1-amine] |  |  |  |  |  | 100 | 12 | 
